Common to all, as to experiment: growth of human tumour cells (NCI), 48 h
The subject of assay [1] is 786-0 renal.
For assay [2], the system named is A549 NSCLC.
Assay [3] concerns BT-549 breast.
Assay [4] relates to K-562 leukemia.
The subject of assay [5] is MALME-3M melanoma.
Assay [6] has as its system MCF7 breast.
Assay [7] relates to OVCAR-4 ovarian.
Assay [8] concerns OVCAR-5 ovarian.
In assay [9] the test system is RXF 393 renal.
The test system of assay [10] is T-47D breast.
Assay [11] has as its system U251 CNS.
Assay [12] has as its system UACC-62 melanoma.
Assay [13] deals with HCC-2998 colon.

We go through eleven molecules from PubChem BioAssay (NCI).

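Values below derive from 48-hour exposures of cells grown in 96-well plates, with endpoints linearly interpolated between the two concentrations bracketing the appropriate inhibition level. TGI: concentration producing complete growth inhibition.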 Bounds are passed on as bounds.

Take `O=C1NC(=O)C2(CCCCCC2)N1`: the TGI in [1], in assay [2], in [3], in assay [4], in assay [5] and in assay [6] was > 100 µM in each case. Also, the TGI in [7], in [8], in assay [9], in assay [10], in [11] and in assay [12] was > 100 µM in each case.
Turning to `CCOC(=O)CSc1nnc2cc(CN3CCCC3)c(-c3ccc(Cl)cc3)nn12`, the TGI in assay [1], in assay [2], in assay [3], in [4], in [5] and in assay [6] was > 100 µM in each case. In addition, the TGI in assay [7], in assay [8], in assay [9], in assay [10], in assay [11] and in assay [12] was > 100 µM in each case.
Consider `CC(=O)Nc1ccc(-c2nc3ccccc3s2)cc1I`, for which the TGI in assay [1] was 44.5 µM; in assay [2] it was > 100 µM; in [3], 81 µM; in assay [13], > 100 µM; in assay [4], > 100 µM; in assay [5] it was > 94.2 µM. Further, the TGI is > 59.5 µM in [6]; > 100 µM in assay [7]; 37 µM in assay [9]; > 93.2 µM in assay [10]; > 81.6 µM in assay [11]; > 76.9 µM in assay [12].
`CC1Oc2c(c(=O)oc3ccccc23)[C@@]1(C)CC1C[C@H](C)C(=O)O1` (stereo not given in full): the TGI in assay [1] was 33.4 µM; in assay [2] it was > 100 µM; in [3] it was 71.8 µM; in assay [13] it was 56.2 µM; in assay [4], 66 µM; in assay [5], 53.4 µM. Besides, the TGI in assay [6] is > 100 µM; in assay [8], > 100 µM; in assay [10], > 100 µM; in assay [11] it was > 100 µM; in assay [12], 42.4 µM.
As to `CCC(=O)c1ccc2[nH]c3c(C)c4c(=O)cc(C)[nH]c4c(C)c3c2c1`, the TGI in assay [1], in assay [2], in [3], in assay [13], in [5] and in assay [6] was > 100 µM throughout. For the same molecule, the TGI in [7], in assay [8], in assay [9], in [10] and in [11] was > 100 µM each time.
Take `C=C(C)[C@@]1(OC(=O)c2cc([N+](=O)[O-])cc([N+](=O)[O-])c2)C[C@@H]2CCCC[C@@H]21`: the TGI in [1], in assay [2], in assay [3], in assay [13], in assay [4] and in assay [5] was > 100 µM each time. Also, the TGI in assay [6], in assay [7], in assay [8], in assay [10], in assay [11] and in assay [12] was > 100 µM throughout.
Take `Cc1ncc2c(=O)c3c(oc2n1)c1ccccc1n3Cc1ccccc1`: the TGI in assay [1], in [2], in [3], in [13], in assay [4] and in assay [5] was > 100 µM in each case. Moreover, the TGI in assay [6] is > 100 µM; in assay [8], > 100 µM; in assay [9], > 100 µM; in assay [10], > 100 µM; in assay [11], > 100 µM; in [12], 93.9 µM.
For the molecule `O=C(c1ccccc1)c1ccc(-n2c3ccccc3c3ccc4c(c32)C(=O)C=CC4=O)cc1`, the TGI is 5.77 µM in assay [1]; 36.4 µM in assay [2]; 38.5 µM in [3]; 29.6 µM in assay [13]; > 100 µM in assay [4]; 10 µM in assay [6]. In addition, the TGI in [7] is 31.8 µM; in assay [8], 38.1 µM; in assay [9] it was 19.2 µM; in assay [10] it was > 22.6 µM; in [11], 30.4 µM; in assay [12], 26.7 µM.
As for `COC(=O)c1c(O)ccc2c1c1c(n2Cc2ccc(Cl)cc2Cl)C(=O)c2ccccc2C1=O`, the TGI was 22.9 µM in assay [1]; 19.3 µM in [2]; 26.1 µM in [3]; 9.33 µM in assay [13]; 22.5 µM in [4]; 34.2 µM in assay [5]. Besides, the TGI in assay [6] was found to be 15.9 µM; in [7], 11.6 µM; in [8] it was 42.9 µM; in assay [9], 19.7 µM; in assay [10], 13.7 µM; in assay [11], 24.6 µM.
Regarding `O=c1oc2ccccc2c(O)c1/C=N/C(=S)NCCc1ccccc1`, the TGI in [1] was > 100 µM; in assay [2], > 100 µM; in [3], > 84.7 µM; in [13] it was > 100 µM; in assay [4], > 100 µM; in assay [6], > 100 µM. In addition, the TGI in assay [7] is > 100 µM; in assay [8], > 100 µM; in assay [9], > 100 µM; in assay [10], > 100 µM; in assay [11], > 100 µM; in [12], 99.4 µM.
For the molecule `CC(NC(=O)c1ccccc1)NC(=O)C(C)C(=O)Nc1ccccc1` (stereo not given), the TGI in [1], in [2], in assay [3], in assay [4], in assay [5] and in [6] was > 100 µM each time. Besides, the TGI in assay [7], in assay [8], in assay [9], in [10], in assay [11] and in [12] was > 100 µM throughout.
